Reference: US8143421B2, “Broadspectrum substituted benzimidazole sulfonamide HIV protease inhibitors” (priority 2002, dated 2012)

Columns and labels:
mutant G = test: Antiviral spectrum, fold resistance towards mutant G; assay type: cell-based; settings: FR=IC50(mutant strain)/IC50(HIV-1 strain LAI)
Description: (§1) Because of the increasing emergence of drug resistant HIV strains, the present compounds were tested for their potency against clinically isolated HIV strains harboring several mutations. These mutations are associated with resistance to protease inhibitors and result in viruses that show various degrees of phenotypic cross-resistance to the currently commercially available drugs such as for instance saquinavir, ritonavir, nelfinavir, indinavir and amprenavir. The viral strains R13025, R13027, R13028, R13029, R13034, R13080, T13127 and R13363 contained mutations as indicated below in Table 3.

mutant E = assay type: cell-based; settings: FR=IC50(mutant strain)/IC50(HIV-1 strain LAI)
Description: (§2) HIV- or mock-infected MT4 cells were incubated for five days in the presence of various concentrations of the inhibitor. […] Cell viability is measured by measuring the concentration of MTT, a yellow, water soluble tetrazolium dye that is converted to a purple, water insoluble formazan in the mitochondria of living cells only. Upon solubilization of the resulting formazan crystals with isopropanol, the absorbance of the solution is monitored at 540 nm. The values correlate directly to the number of living cells remaining in the culture at the completion of the five day incubation. The inhibitory activity of the compound was monitored on the virus-infected cells and was expressed as IC50 and IC90. These values represent the amount of the compound required to protect 50% and 90%, respectively, of the cells from the cytopathogenic effect of the virus. […] The selectivity index (SI) (ratio CC50/IC50) is an indication of the selectivity of the anti-HIV activity of the inhibitor. Wherever results are reported as e.g. pIC50 or pCC50 values, the result is expressed as the negative logarithm of the result expressed as IC50 or CC50 respectively.
(§3) Because of the increasing emergence of drug resistant HIV strains, the present compounds were tested for their potency against clinically isolated HIV strains harboring several mutations. […] The viral strains R13025, R13027, R13028, R13029, R13034, R13080, T13127 and R13363 contained mutations as indicated below in Table 3.
(§4) As a measure of the broad spectrum activity of the present compounds, the fold resistance (FR), defined as FR=IC50(mutant strain)/IC50(HIV-1 strain LAI), was determined.

mutant A = assay type: cell-based; settings: FR=IC50(mutant strain)/IC50(HIV-1 strain LAI)
Description: as §2, §3, §4

HIV-1 strain LAI = test: Cellular anti-HIV assay, MT4 cells, MTT readout, wild type HIV-1 strain LAI; assay type: cell-based; settings: for pIC50 (LAI): Table 1, MT4 cells, five days, HIV-1 strain LAI; for WT (pIC50 against wild type HIV-LAI strain): Table 4
Description: The compounds of the present invention were examined for anti-viral activity in a cellular assay. […] The cellular assay was performed according to the following procedure.

mutant F = test: Antiviral spectrum, fold resistance towards mutant F; assay type: cell-based; settings: FR=IC50(mutant strain)/IC50(HIV-1 strain LAI)
Description: as §1

mutant C = test: Antiviral spectrum, fold resistance towards mutant C; assay type: cell-based; settings: FR=IC50(mutant strain)/IC50(HIV-1 strain LAI)
Description: as §1

mock-infected MT4 cells = test: in vitro
Description: as §2, §4

mutant D = test: Antiviral spectrum, fold resistance towards mutant D; assay type: cell-based; settings: FR=IC50(mutant strain)/IC50(HIV-1 strain LAI)
Description: as §1

mutant B = test: Antiviral spectrum, fold resistance towards mutant B; assay type: cell-based; settings: FR=IC50(mutant strain)/IC50(HIV-1 strain LAI)
Description: as §1

[1] = pCC50 value as determined with mock transfected cells

Compound: COC(=O)Nc1nc2ccc(S(=O)(=O)N(CC(C)C)C[C@@H](O)[C@H](Cc3ccccc3)NC(=O)COc3c(C)cccc3C)cc2[nH]1 [Compound 6]
- FR towards mutant G (mutant G): 60
- FR towards mutant E (mutant E): 1.6
- FR value towards mutant A (mutant A): 2.9
- pIC50 (LAI) (HIV-1 strain LAI): 8.6
- WT (pIC50 against wild type HIV-LAI strain) (HIV-1 strain LAI): 8.6
- FR towards mutant F (mutant F): 10
- FR towards mutant C (mutant C): 2.7
- Tox (pCC50) (mock-infected MT4 cells): <4
- FR towards mutant D (mutant D): 2.1

Compound: COC(=O)Nc1nc2ccc(S(=O)(=O)N(CC(C)C)C[C@@H](O)[C@H](Cc3ccccc3)NC(=O)c3ccc([N+](=O)[O-])cc3C)cc2[nH]1 [Compound 11]
- FR towards mutant G (mutant G): 245
- FR towards mutant E (mutant E): 1.6
- FR value towards mutant A (mutant A): 5.4
- pIC50 (LAI) (HIV-1 strain LAI): 8.0
- WT (pIC50 against wild type HIV-LAI strain) (HIV-1 strain LAI): 8.0
- FR towards mutant F (mutant F): 7.1
- FR towards mutant C (mutant C): 1.5
- Tox (pCC50) (mock-infected MT4 cells; [1]): <4
- FR towards mutant D (mutant D): 3.5
- FR towards mutant B (mutant B): 1.0

Compound: COC(=O)Nc1nc2ccc(S(=O)(=O)N(CC(C)C)C[C@@H](O)[C@H](Cc3ccccc3)NC(=O)COc3c(C)cc(C#N)cc3C)cc2[nH]1 [Compound 12]
- FR towards mutant G (mutant G): 89
- FR towards mutant E (mutant E): 9.5
- FR value towards mutant A (mutant A): 5.5
- pIC50 (LAI) (HIV-1 strain LAI): 7.8
- WT (pIC50 against wild type HIV-LAI strain) (HIV-1 strain LAI): 7.8
- FR towards mutant F (mutant F): 49
- FR towards mutant C (mutant C): 9.5
- Tox (pCC50) (mock-infected MT4 cells; [1]): <4
- FR towards mutant D (mutant D): 7.9
- FR towards mutant B (mutant B): 2.1

Compound: CC(C)CN(C[C@@H](O)[C@H](Cc1ccccc1)NC(=O)O[C@H]1CCOC1)S(=O)(=O)c1ccc2ncn(CCc3ccccc3)c2c1 [Compound 15]
- FR towards mutant G (mutant G): 407
- FR towards mutant E (mutant E): 6.2
- pIC50 (LAI) (HIV-1 strain LAI): 7.7
- WT (pIC50 against wild type HIV-LAI strain) (HIV-1 strain LAI): 7.7
- FR towards mutant F (mutant F): 269
- FR towards mutant C (mutant C): 2.4
- Tox (pCC50) (mock-infected MT4 cells; [1]): 4.2
- FR towards mutant D (mutant D): 5.4
- FR towards mutant B (mutant B): 6.3

Compound: COC(=O)Nc1nc2ccc(S(=O)(=O)N(CC(C)C)C[C@@H](O)[C@H](Cc3ccccc3)NC(=O)c3ccc(N)cc3C)cc2[nH]1 [Compound 22]
- FR towards mutant G (mutant G): 4.3
- FR towards mutant E (mutant E): 0.72
- FR value towards mutant A (mutant A): 0.74
- pIC50 (LAI) (HIV-1 strain LAI): 7.4
- WT (pIC50 against wild type HIV-LAI strain) (HIV-1 strain LAI): 7.4
- FR towards mutant F (mutant F): 0.69
- FR towards mutant C (mutant C): 1.1
- Tox (pCC50) (mock-infected MT4 cells; [1]): 4.1
- FR towards mutant D (mutant D): 0.71
- FR towards mutant B (mutant B): 0.78

Compound: COc1ccc(C(=O)Nc2nc3ccc(S(=O)(=O)N(CC(C)C)C[C@@H](O)[C@H](Cc4ccccc4)NC(=O)COc4c(C)cccc4C)cc3[nH]2)cc1 [Compound 37]
- FR towards mutant G (mutant G): 21
- FR towards mutant E (mutant E): 1.3
- FR value towards mutant A (mutant A): 1.0
- pIC50 (LAI) (HIV-1 strain LAI): 6.9
- WT (pIC50 against wild type HIV-LAI strain) (HIV-1 strain LAI): 6.9
- FR towards mutant F (mutant F): 7.9
- FR towards mutant C (mutant C): 0.95
- FR towards mutant D (mutant D): 1.9
- FR towards mutant B (mutant B): 0.35

Compound: CC(=O)Nc1nc2ccc(S(=O)(=O)N(CC(C)C)C[C@@H](O)[C@H](Cc3ccccc3)NC(=O)OC3COC4OCCC34)cc2[nH]1 (some centres unmarked) [Compound 38]
- FR towards mutant G (mutant G): 0.60
- FR towards mutant E (mutant E): 0.17
- FR value towards mutant A (mutant A): 0.12
- pIC50 (LAI) (HIV-1 strain LAI): 6.7
- WT (pIC50 against wild type HIV-LAI strain) (HIV-1 strain LAI): 6.7
- FR towards mutant F (mutant F): 0.21
- FR towards mutant C (mutant C): 0.39
- Tox (pCC50) (mock-infected MT4 cells): <4
- FR towards mutant D (mutant D): 0.19
- FR towards mutant B (mutant B): 0.32

Compound: CC(C)CN(CC(O)C(Cc1ccccc1)NC(=O)OC1COC2OCCC12)S(=O)(=O)c1ccc2nc(NC(=O)OCCN(C)C)[nH]c2c1 (centres unmarked) [Compound 48]
- FR towards mutant G (mutant G): 0.85
- FR towards mutant E (mutant E): 0.32
- FR value towards mutant A (mutant A): 0.37
- pIC50 (LAI) (HIV-1 strain LAI): 6.4
- WT (pIC50 against wild type HIV-LAI strain) (HIV-1 strain LAI): 6.4
- FR towards mutant F (mutant F): 0.35
- FR towards mutant C (mutant C): 0.38
- Tox (pCC50) (mock-infected MT4 cells; [1]): <4
- FR towards mutant D (mutant D): 0.35
- FR towards mutant B (mutant B): 1.9

Compound: CC(C)CN(C[C@@H](O)[C@H](Cc1ccccc1)NC(=O)O[C@H]1CCOC1)S(=O)(=O)c1ccc2nc(NC(=O)NCCN(C)C)[nH]c2c1 [Compound 52]
- FR towards mutant E (mutant E): 3.4
- FR value towards mutant A (mutant A): 4.2
- pIC50 (LAI) (HIV-1 strain LAI): 6.1
- WT (pIC50 against wild type HIV-LAI strain) (HIV-1 strain LAI): 6.1
- FR towards mutant F (mutant F): 4.3
- FR towards mutant C (mutant C): 3.5
- Tox (pCC50) (mock-infected MT4 cells): <5
- FR towards mutant D (mutant D): 3.0
- FR towards mutant B (mutant B): 2.9

Compound: CC(C)CN(C[C@@H](O)[C@H](Cc1ccccc1)NC(=O)OCc1cccnc1)S(=O)(=O)c1ccc2nc(N)[nH]c2c1 [Compound 54]
- FR towards mutant E (mutant E): 0.42
- FR value towards mutant A (mutant A): 1.6
- pIC50 (LAI) (HIV-1 strain LAI): 5.8
- WT (pIC50 against wild type HIV-LAI strain) (HIV-1 strain LAI): 5.8
- FR towards mutant F (mutant F): 1.7
- FR towards mutant C (mutant C): 0.42
- Tox (pCC50) (mock-infected MT4 cells; [1]): <4
- FR towards mutant D (mutant D): 0.46
- FR towards mutant B (mutant B): 0.40

Compound: CC(C)CN(CC(O)C(Cc1ccccc1)NC(=O)OC1COC2OCCC12)S(=O)(=O)c1ccc2nc(CO)[nH]c2c1 (centres unmarked) [Compound 56]
- FR towards mutant G (mutant G): 0.83
- FR towards mutant E (mutant E): 0.18
- FR value towards mutant A (mutant A): 0.28
- pIC50 (LAI) (HIV-1 strain LAI): 5.7
- WT (pIC50 against wild type HIV-LAI strain) (HIV-1 strain LAI): 5.7
- FR towards mutant F (mutant F): 0.34
- FR towards mutant C (mutant C): 0.43
- Tox (pCC50) (mock-infected MT4 cells): <4
- FR towards mutant D (mutant D): 0.18
- FR towards mutant B (mutant B): 0.66

Compound: [(1S,2R)-2-hydroxy-3-[(2-methylpropyl)[[1-(2-methyl-propyl)benzimidazol-6-yl]sulfonyl]amino]-1-(phenylmethyl)propyl]carbamic acid, [(3R,3aS,6aR)-hexahydrofuro[2,3-b]furan-3-yl]ester [Compound 7]
- FR towards mutant G (mutant G): 174
- FR towards mutant E (mutant E): 2.1
- pIC50 (LAI) (HIV-1 strain LAI): 8.6
- WT (pIC50 against wild type HIV-LAI strain) (HIV-1 strain LAI): 8.6
- FR towards mutant F (mutant F): 72
- FR towards mutant C (mutant C): 0.45
- Tox (pCC50) (mock-infected MT4 cells; [1]): <4
- FR towards mutant D (mutant D): 1.2
